Data on three compounds can be found in the supplement of paper PMC4862054.

The test system of assay [1] is BT-549. As to conditions: 72 h. An outline of the steps: (§1)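 Seeding of breast cancer cell lines (20 µl suspension) was done into 384-well plates pre-loaded with compound at 5 concentrations, 10-fold apart, covering a compound-specific 10,000-fold range. The plates were incubated for 72 h, read for CellTox Green fluorescence (485/520 nm), and then read for CellTiter-Glo luminescence after 10 min at room temperature. Every plate was normalised to 0.1 % DMSO and a positive kill control. Curve fitting gave the EC50, censored at the top concentration.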

Assay [2] relates to MDA-MB-436. As to conditions: 72 h. An outline of the steps:
as §1

In assay [3] the test system is CAL-148. Kind of assay: normalised viability (% of control), CellTiter-Blue; higher = more viable cells (about 100 = DMSO control). To be noted: incubation time: 72 h. As for the experimental part:
(§2)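 DSRT, CellTiter-Blue viability, 72 h incubation. Signal is normalised to DMSO and benzethonium chloride controls. Value is the normalised response at dose 8.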
Background: The colour change of resazurin is a common sign of viable cells or microbes.

Assay [4] deals with CAL-51. The description is as above. As to conditions: incubation time: 72 h. On the procedure: as §2
Assay [5] has as its system CAL-85-1. The assay is described as above. To be noted: incubation time: 72 h. As for the experimental part:
as §2

Assay [6] deals with DU-4475. The assay is described as above. As to conditions: incubation time: 72 h. On the procedure:
as §2

The subject of assay [7] is HDQ-P1. Described as above. To be noted: incubation time: 72 h. As for the experimental part:
as §2

For assay [8], the system named is MDA-MB-453. The description is as above. To be noted: incubation time: 72 h. On the procedure:
as §2

Another assay relates to BT-474. Briefly: normalised viability (% of control), CellTiter-Blue; higher = more viable cells (about 100 = DMSO control). As to conditions: incubation time: 72 h. The method in brief:
(§3)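 Plates were quality-checked by Z'-factor and normalised to vehicle (100) and a positive kill control (0). The underlying assay incubated breast cancer cell lines for 72 h on 384-well plates with compound, then added 2.5 µl CellTiter-Blue for 2 h at 37 °C and read at 560/590 nm. The value is normalised viability at a single listed concentration of the series.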

Assay [9] has as its system BT-549. Described as above. To be noted: incubation time: 72 h. An outline of the steps:
as §3

The test system of assay [10] is CAL-51. The description is as above. To be noted: incubation time: 72 h. An outline of the steps: as §3
The source holds these as a separate data set.

The subject of assay [11] is CAL-85-1. The assay is described as above. To be noted: incubation time: 72 h. The method in brief: as §3
The source holds these as a separate data set.

Assay [12] has as its system DU-4475. Described as above. To be noted: incubation time: 72 h. The method in brief: as §3
This is another data set of the same source.

Assay [13] deals with HDQ-P1. The description is as above. As to conditions: incubation time: 72 h. The method in brief: as §3
The source holds these as a separate data set.

The next assay concerns Hs578T. The assay is described as above. As to conditions: incubation time: 72 h. An outline of the steps:
as §3

Assay [14] relates to MDA-MB-436. Described as above. To be noted: incubation time: 72 h. An outline of the steps: as §3
Another assay has as its system MFM-223. The description is as above. To be noted: incubation time: 72 h. The method in brief: as §3
A further assay deals with SK-BR-3. The description is as above. As to conditions: incubation time: 72 h. The method in brief: as §3
The subject of assay [15] is CAL-148. Briefly: normalised viability (% of control), CellTiter-Blue; higher = more viable cells (about 100 = DMSO control). To be noted: incubation time: 72 h. As for the experimental part:
(§4)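 DSRT, CellTiter-Blue viability, 72 h incubation. Signal is normalised to DMSO and benzethonium chloride controls. Value is the normalised response at dose 6.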
This is another data set of the same source.

For assay [16], the system named is CAL-51. The assay is described as above. To be noted: incubation time: 72 h. On the procedure:
as §4
The source holds these as a separate data set.

Assay [17] relates to CAL-85-1. The assay is described as above. As to conditions: incubation time: 72 h. On the procedure: as §4
This is another data set of the same source.

Assay [18] deals with DU-4475. Described as above. As to conditions: incubation time: 72 h. On the procedure:
as §4
This is another data set of the same source.

The test system of assay [19] is HDQ-P1. The assay is described as above. As to conditions: incubation time: 72 h. As for the experimental part: as §4
This is another data set of the same source.

In assay [20] the test system is MDA-MB-453. The description is as above. As to conditions: incubation time: 72 h. On the procedure: as §4
This is another data set of the same source.

Assay [21] relates to CAL-148. The assay is described as above. To be noted: incubation time: 72 h. On the procedure:
(§5)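 DSRT, CellTiter-Blue viability, 72 h incubation. Signal is normalised to DMSO and benzethonium chloride controls. Value is the normalised response at dose 9.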
This is another data set of the same source.

In assay [22] the test system is CAL-51. The description is as above. As to conditions: incubation time: 72 h. On the procedure:
as §5
The source holds these as a separate data set.

Assay [23] relates to CAL-85-1. Described as above. To be noted: incubation time: 72 h. As for the experimental part:
as §5
This is another data set of the same source.

In assay [24] the test system is DU-4475. Described as above. To be noted: incubation time: 72 h. On the procedure: as §5
This is another data set of the same source.

The subject of assay [25] is HDQ-P1. Described as above. To be noted: incubation time: 72 h. On the procedure:
as §5
The source holds these as a separate data set.

The test system of assay [26] is MDA-MB-453. Described as above. As to conditions: incubation time: 72 h. As for the experimental part:
as §5
The source holds these as a separate data set.

Another assay deals with HCC1937. As to conditions: 72 h. An outline of the steps:
as §1

Consider `CC[C@@H]1C(=O)N(C)c2cnc(Nc3ccc(C(=O)NC4CCN(C)CC4)cc3OC)nc2N1C1CCCC1` [BI 2536], for which the “EC50, CellTiter-Glo” value came to 4.82 nM in the assay on BT-549 [1] and 2.44 nM in the assay with MDA-MB-436 [2]. The normalised viability in the assay on CAL-148 [3] (300 nM) stood at 41.5%; in the assay on CAL-51 [4] (300 nM) it was 10.6%; with CAL-85-1 [5] (300 nM), 61.8%; in the assay with DU-4475 [6] (300 nM), 32.9%; with HDQ-P1 [7] (300 nM) it was 65.2%; with MDA-MB-453 [8] (300 nM), 39.5%. Moreover, the normalised viability was 44.4% with BT-474 (10 nM); 36.9% in the assay on BT-549 [9] (10 nM); 89.4% in the assay with CAL-51 [10] (1 nM); 90% with CAL-85-1 [11] (1 nM); 91.7% in the assay with DU-4475 [12] (1 nM); 102% with HDQ-P1 [13] (1 nM). In addition, the normalised viability in the assay on Hs578T (10 nM) turned out to be 83.5%; in the assay on MDA-MB-436 [14] (10 nM), 77.8%; in the assay with MFM-223 (10 nM), 41.8%; in the assay with SK-BR-3 (10 nM) it was 15.8%; in the assay on CAL-148 [15] (30 nM), 25.5%; in the assay on CAL-51 [16] (30 nM), 25.8%. Besides, the normalised viability in the assay on CAL-85-1 [17] (30 nM) came out at 45.3%; in the assay with DU-4475 [18] (30 nM), 18.1%; with HDQ-P1 [19] (30 nM) it was 43.6%; with MDA-MB-453 [20] (30 nM), 28.4%; with CAL-148 [21] (1000 nM), 44.3%; in the assay with CAL-51 [22] (1000 nM), 8.2%. Moreover, the normalised viability in the assay on CAL-85-1 [23] (1000 nM) came to 61.6%; in the assay with DU-4475 [24] (1000 nM), 44.9%; in the assay with HDQ-P1 [25] (1000 nM) it was 86.2%; in the assay with MDA-MB-453 [26] (1000 nM), 25.2%.
On to `O=C(/C=C/c1cccnc1)NCCCCC1CCN(C(=O)c2ccccc2)CC1` [Daporinad], for which the entries for the “EC50, CellTiter-Glo” value with HCC1937 and in the assay on MDA-MB-436 [2] were 6.97 nM and 67.4 nM, respectively.
As for `Nc1ccccc1NC(=O)c1ccc(CNC(=O)OCc2cccnc2)cc1` [Entinostat], the “EC50, CellTiter-Glo” value was found to be 925 nM in the assay with BT-549 [1] and 1330 nM in the assay on MDA-MB-436 [2]. Besides, the normalised viability in the assay with CAL-148 [3] (3000 nM) turned out to be 58.7%; with CAL-51 [4] (3000 nM), 108%; in the assay with CAL-85-1 [5] (3000 nM), 53.7%; with DU-4475 [6] (3000 nM), 103%; with HDQ-P1 [7] (3000 nM) it was 80%; with MDA-MB-453 [8] (3000 nM), 50.3%. Moreover, the normalised viability came out at 106% with BT-474 (100 nM); 91.5% in the assay on BT-549 [9] (100 nM); 114% with CAL-51 [10] (10 nM); 96.7% in the assay with CAL-85-1 [11] (10 nM); 117% in the assay on DU-4475 [12] (10 nM); 102% in the assay on HDQ-P1 [13] (10 nM). Also, the normalised viability in the assay with Hs578T (100 nM) is 93.3%; with MDA-MB-436 [14] (100 nM) it was 83.5%; in the assay with MFM-223 (100 nM) it was 100%; with SK-BR-3 (100 nM), 85.6%; in the assay on CAL-148 [15] (300 nM) it was 86.9%; in the assay on CAL-51 [16] (300 nM) it was 114%. Further, the normalised viability was 109% in the assay on CAL-85-1 [17] (300 nM); 97.9% in the assay on DU-4475 [18] (300 nM); 72% in the assay with HDQ-P1 [19] (300 nM); 103% in the assay on MDA-MB-453 [20] (300 nM); 9.38% in the assay on CAL-148 [21] (10000 nM); 29.6% in the assay on CAL-51 [22] (10000 nM). In addition, the normalised viability was 20.7% in the assay with CAL-85-1 [23] (10000 nM), 0.48% with DU-4475 [24] (10000 nM), 71.2% in the assay on HDQ-P1 [25] (10000 nM) and 11.2% in the assay on MDA-MB-453 [26] (10000 nM).
